Data published in US12479847B2 (DANA-FARBER CANCER INSTITUTE, INC., priority 2019, dated 2025).

Experiments:
Assay in all cases: KINOMEscan (ScanMAX) kinase profiling
Type in all cases: binding
panel of 468 kinases [1] = molecular target: T1, panel of 468 kinases (Homo sapiens, UniProt P57078); details: RIPK4; 1 μM; read-out: % control
T1 construct: purchased KINOMEscan (ScanMAX) service
T1 sequence (P57078 1-832): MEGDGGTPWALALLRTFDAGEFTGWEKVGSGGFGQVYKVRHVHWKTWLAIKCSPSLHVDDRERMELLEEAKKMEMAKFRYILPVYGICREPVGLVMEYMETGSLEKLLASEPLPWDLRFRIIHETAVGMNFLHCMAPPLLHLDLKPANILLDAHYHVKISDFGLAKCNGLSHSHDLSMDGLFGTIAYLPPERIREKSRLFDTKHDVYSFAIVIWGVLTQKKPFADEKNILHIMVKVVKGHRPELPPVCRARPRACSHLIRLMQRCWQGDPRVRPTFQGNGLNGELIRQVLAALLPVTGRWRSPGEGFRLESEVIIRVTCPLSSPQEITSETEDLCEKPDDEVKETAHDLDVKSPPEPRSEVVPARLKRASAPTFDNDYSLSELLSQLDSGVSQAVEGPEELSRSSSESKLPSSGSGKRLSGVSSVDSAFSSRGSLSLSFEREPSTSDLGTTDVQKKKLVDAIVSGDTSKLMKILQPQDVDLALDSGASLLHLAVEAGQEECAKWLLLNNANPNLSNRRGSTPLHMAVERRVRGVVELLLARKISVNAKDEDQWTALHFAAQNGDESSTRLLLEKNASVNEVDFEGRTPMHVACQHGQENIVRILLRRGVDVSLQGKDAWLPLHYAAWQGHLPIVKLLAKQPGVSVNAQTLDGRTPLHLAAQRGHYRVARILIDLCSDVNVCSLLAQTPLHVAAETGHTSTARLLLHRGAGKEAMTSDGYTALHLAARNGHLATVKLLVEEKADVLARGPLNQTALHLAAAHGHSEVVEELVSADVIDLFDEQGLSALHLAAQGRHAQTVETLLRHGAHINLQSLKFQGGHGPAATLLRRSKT

panel of 468 kinases [2] = molecular target: T2, panel of 468 kinases (Homo sapiens, UniProt P49761); details: CLK3; 1 μM; read-out: % control
T2 construct: purchased KINOMEscan (ScanMAX) service

panel of 468 kinases [3] = molecular target: T3, panel of 468 kinases (Homo sapiens, UniProt Q8IY84); details: NIM1; 1 μM; read-out: % control
T3 construct: purchased KINOMEscan (ScanMAX) service
T3 sequence (Q8IY84 whole entry): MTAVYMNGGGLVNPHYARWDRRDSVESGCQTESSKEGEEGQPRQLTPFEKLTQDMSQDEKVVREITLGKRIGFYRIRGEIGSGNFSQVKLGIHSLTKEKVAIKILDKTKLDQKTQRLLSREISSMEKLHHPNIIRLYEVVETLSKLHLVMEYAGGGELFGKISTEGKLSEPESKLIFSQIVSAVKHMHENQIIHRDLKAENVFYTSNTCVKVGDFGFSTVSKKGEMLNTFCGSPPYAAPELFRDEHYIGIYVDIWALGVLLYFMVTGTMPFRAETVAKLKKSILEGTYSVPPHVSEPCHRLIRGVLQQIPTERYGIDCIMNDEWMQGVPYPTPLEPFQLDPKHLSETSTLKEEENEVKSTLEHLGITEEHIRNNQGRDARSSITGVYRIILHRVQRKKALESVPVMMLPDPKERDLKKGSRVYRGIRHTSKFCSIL

panel of 468 kinases [4] = molecular target: T4, panel of 468 kinases (Homo sapiens, UniProt P0C264); details: SgK110; 1 μM; read-out: % control
T4 construct: purchased KINOMEscan (ScanMAX) service
T4 sequence (P0C264 1-359): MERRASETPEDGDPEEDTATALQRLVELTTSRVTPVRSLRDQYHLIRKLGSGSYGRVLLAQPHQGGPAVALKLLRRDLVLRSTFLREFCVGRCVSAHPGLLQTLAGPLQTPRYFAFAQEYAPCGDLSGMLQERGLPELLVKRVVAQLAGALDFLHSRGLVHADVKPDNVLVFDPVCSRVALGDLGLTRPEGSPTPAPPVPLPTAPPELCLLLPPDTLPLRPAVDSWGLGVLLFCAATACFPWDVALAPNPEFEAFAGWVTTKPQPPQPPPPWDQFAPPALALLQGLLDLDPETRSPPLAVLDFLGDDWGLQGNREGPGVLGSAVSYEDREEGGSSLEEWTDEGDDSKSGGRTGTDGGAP

panel of 468 kinases [5] = molecular target: T5, panel of 468 kinases (Homo sapiens, UniProt O60331); details: PIP5K1C; 1 μM; read-out: % control
T5 construct: purchased KINOMEscan (ScanMAX) service
T5 sequence (O60331 whole entry): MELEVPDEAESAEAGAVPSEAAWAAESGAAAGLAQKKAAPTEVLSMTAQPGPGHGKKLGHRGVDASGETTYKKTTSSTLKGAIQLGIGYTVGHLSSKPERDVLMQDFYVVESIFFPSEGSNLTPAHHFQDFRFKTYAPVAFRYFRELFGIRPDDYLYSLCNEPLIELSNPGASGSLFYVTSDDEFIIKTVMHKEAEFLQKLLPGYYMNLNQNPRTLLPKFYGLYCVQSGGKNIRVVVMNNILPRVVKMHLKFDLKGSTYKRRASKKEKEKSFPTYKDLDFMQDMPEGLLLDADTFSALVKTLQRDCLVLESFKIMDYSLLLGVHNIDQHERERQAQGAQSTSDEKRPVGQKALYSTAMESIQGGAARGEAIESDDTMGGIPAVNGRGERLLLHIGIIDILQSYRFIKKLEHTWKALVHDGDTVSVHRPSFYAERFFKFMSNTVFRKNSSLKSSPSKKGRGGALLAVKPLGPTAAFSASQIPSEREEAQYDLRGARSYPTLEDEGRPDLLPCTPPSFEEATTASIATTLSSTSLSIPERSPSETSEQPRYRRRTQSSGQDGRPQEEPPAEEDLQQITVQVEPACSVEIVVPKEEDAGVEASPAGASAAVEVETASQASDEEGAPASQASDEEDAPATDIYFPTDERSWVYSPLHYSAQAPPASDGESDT

panel of 468 kinases [6] = molecular target: T6, panel of 468 kinases (Homo sapiens, UniProt P29317); details: EPHA2; 1 μM; read-out: % control
T6 construct: purchased KINOMEscan (ScanMAX) service
T6 sequence (P29317 24-976): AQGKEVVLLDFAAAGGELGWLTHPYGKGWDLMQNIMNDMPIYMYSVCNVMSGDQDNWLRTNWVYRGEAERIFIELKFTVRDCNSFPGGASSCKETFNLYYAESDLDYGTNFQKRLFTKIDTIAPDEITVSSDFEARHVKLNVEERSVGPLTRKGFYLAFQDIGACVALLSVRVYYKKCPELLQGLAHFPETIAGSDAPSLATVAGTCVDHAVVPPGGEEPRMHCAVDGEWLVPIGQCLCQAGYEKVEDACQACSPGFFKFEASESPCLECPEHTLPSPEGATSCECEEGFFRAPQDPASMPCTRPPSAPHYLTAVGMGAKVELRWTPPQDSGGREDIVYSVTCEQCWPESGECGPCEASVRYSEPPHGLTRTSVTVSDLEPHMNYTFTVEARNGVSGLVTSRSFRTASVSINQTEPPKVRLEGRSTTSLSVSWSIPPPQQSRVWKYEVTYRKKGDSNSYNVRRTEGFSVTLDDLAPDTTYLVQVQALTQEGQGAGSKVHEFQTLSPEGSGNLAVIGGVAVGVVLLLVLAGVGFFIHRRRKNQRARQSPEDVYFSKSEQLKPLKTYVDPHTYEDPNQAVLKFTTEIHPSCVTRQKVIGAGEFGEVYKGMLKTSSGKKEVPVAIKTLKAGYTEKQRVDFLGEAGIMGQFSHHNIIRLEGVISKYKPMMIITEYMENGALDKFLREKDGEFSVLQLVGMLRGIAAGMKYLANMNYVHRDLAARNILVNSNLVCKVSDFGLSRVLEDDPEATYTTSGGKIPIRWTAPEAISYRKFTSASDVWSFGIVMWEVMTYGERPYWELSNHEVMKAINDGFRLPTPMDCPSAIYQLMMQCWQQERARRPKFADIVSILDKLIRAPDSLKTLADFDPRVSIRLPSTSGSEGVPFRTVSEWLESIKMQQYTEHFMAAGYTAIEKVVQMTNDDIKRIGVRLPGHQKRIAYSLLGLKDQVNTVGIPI

panel of 468 kinases [7] = molecular target: T7, panel of 468 kinases (Homo sapiens, UniProt P42345); details: MTOR; 1 μM; read-out: % control
T7 construct: purchased KINOMEscan (ScanMAX) service

panel of 468 kinases [8] = molecular target: T8, panel of 468 kinases (Homo sapiens, UniProt P53779); details: JNK3; 1 μM; read-out: % control
T8 construct: purchased KINOMEscan (ScanMAX) service
T8 sequence (P53779 whole entry): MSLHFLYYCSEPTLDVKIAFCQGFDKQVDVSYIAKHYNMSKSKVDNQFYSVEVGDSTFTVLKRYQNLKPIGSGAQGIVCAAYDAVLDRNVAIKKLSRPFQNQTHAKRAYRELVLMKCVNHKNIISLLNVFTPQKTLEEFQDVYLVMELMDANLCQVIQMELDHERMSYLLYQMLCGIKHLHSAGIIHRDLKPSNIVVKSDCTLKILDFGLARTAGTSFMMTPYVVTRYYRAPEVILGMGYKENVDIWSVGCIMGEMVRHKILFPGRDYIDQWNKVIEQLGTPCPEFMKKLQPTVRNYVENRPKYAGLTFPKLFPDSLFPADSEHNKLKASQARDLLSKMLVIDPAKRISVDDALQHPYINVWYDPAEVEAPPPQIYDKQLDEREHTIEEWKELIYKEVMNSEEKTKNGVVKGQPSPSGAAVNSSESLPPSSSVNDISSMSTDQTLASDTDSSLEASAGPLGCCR

panel of 468 kinases [9] = molecular target: T9, panel of 468 kinases (Homo sapiens, UniProt P06239); details: LCK; 1 μM; read-out: % control
T9 construct: purchased KINOMEscan (ScanMAX) service

panel of 468 kinases [10] = molecular target: T10, panel of 468 kinases (Homo sapiens, UniProt P49841); details: GSK3B; 1 μM; read-out: % control
T10 construct: purchased KINOMEscan (ScanMAX) service
T10 sequence (P49841 whole entry): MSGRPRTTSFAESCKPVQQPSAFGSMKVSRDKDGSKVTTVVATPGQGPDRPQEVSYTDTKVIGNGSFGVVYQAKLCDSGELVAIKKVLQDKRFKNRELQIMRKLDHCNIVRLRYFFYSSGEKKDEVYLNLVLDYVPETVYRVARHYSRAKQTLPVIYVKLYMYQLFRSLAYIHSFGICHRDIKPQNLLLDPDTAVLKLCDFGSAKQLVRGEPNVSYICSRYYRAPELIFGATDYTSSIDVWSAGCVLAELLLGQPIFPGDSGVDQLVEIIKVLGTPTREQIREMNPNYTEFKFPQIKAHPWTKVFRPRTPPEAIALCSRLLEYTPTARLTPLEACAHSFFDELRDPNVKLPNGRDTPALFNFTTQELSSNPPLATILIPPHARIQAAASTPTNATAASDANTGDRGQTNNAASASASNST

panel of 468 kinases [11] = molecular target: T11, panel of 468 kinases (Homo sapiens, UniProt Q9Y243); details: AKT3; 1 μM; read-out: % control
T11 construct: purchased KINOMEscan (ScanMAX) service

panel of 468 kinases [12] = molecular target: T12, panel of 468 kinases (Homo sapiens, UniProt P0C1S8); details: WEE2; 1 μM; read-out: % control
T12 construct: purchased KINOMEscan (ScanMAX) service
T12 sequence (P0C1S8 whole entry): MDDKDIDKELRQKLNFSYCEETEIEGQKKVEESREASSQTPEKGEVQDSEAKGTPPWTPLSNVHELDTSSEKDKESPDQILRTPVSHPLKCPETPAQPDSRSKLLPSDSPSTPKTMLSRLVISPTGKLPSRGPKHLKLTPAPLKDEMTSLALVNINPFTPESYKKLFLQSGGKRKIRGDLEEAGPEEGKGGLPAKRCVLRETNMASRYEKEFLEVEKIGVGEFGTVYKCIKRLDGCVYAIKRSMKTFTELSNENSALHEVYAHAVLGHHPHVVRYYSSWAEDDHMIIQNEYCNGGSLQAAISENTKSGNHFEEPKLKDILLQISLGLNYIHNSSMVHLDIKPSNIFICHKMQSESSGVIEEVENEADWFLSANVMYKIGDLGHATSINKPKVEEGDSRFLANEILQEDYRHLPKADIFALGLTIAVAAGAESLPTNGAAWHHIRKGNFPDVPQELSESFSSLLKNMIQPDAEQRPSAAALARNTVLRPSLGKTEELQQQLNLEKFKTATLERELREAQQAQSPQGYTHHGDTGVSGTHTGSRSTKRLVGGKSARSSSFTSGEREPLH

panel of 468 kinases [13] = molecular target: T13, panel of 468 kinases (Homo sapiens, UniProt Q04912); details: MST1R; 1 μM; read-out: % control
T13 construct: purchased KINOMEscan (ScanMAX) service
T13 sequence (Q04912 25-1400): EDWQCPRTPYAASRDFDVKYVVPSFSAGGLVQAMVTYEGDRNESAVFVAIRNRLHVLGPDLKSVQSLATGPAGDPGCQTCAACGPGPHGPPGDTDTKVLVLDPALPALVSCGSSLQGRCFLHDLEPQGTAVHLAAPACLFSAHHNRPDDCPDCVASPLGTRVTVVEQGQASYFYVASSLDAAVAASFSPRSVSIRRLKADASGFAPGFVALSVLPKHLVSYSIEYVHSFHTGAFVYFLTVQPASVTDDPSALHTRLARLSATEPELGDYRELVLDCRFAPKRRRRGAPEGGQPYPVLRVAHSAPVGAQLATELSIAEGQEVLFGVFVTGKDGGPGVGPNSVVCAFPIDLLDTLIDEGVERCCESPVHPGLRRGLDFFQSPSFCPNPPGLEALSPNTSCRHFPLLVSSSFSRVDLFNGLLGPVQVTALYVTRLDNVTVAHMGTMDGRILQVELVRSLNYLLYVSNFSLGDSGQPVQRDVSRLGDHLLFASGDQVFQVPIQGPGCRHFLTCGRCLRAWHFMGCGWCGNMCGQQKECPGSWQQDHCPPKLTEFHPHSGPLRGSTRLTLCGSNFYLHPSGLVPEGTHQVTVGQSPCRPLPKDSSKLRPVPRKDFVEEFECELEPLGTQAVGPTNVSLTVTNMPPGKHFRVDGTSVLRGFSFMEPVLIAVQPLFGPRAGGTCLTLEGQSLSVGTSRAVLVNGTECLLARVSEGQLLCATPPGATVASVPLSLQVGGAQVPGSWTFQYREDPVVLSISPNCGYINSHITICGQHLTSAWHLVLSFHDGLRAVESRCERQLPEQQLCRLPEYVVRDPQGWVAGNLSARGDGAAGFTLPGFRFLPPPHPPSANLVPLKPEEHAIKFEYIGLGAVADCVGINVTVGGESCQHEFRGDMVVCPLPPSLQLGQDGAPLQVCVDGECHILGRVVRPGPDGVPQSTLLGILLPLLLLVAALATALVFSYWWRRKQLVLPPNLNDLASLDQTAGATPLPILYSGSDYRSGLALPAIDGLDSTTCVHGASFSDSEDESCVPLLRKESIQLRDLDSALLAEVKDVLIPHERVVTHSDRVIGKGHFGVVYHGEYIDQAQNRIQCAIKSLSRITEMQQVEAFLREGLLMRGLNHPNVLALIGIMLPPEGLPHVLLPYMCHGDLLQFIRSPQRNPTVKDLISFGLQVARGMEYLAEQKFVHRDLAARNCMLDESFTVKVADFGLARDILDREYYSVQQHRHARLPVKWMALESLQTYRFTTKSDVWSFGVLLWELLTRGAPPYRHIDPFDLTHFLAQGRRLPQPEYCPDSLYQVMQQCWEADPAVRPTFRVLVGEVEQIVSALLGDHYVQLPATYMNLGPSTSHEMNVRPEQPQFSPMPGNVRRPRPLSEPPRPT

Compound | remaining binding at 1 µM (panel of 468 kinases [1]) [%] | remaining binding at 1 µM (panel of 468 kinases [2]) [%] | remaining binding at 1 µM (panel of 468 kinases [3]) [%] | remaining binding at 1 µM (panel of 468 kinases [4]) [%] | remaining binding at 1 µM (panel of 468 kinases [5]) [%] | remaining binding at 1 µM (panel of 468 kinases [6]) [%] | remaining binding at 1 µM (panel of 468 kinases [7]) [%] | remaining binding at 1 µM (panel of 468 kinases [8]) [%] | remaining binding at 1 µM (panel of 468 kinases [9]) [%] | remaining binding at 1 µM (panel of 468 kinases [10]) [%] | remaining binding at 1 µM (panel of 468 kinases [11]) [%] | remaining binding at 1 µM (panel of 468 kinases [12]) [%] | remaining binding at 1 µM (panel of 468 kinases [13]) [%]
CNc1nc(Nc2ccc(S(=O)(=O)N3CCC(N4CCOCC4)CC3)cc2OC)nc2[nH]cc(Cl)c12 [Compound 12, 5-chloro-N2-(2-methoxy-4-((4-morpholinopiperidin-1-yl)sulfonyl)phenyl)-N4-methyl-7H-pyrrolo[2,3-d]pyrimidine-2,4-diamine] | 76 | 77 | 82 | 92 | 57 | 100 | 67 | 16 | 91 | 96 | 100 | 100 | 100
CNc1nc(Nc2ccc(C(=O)N3CCC(N4CCOCC4)CC3)c3c2OCO3)nc2[nH]cc(Cl)c12 [Compound 75, (7-((5-chloro-4-(methylamino)-7H-pyrrolo[2,3-d]pyrimidin-2-yl)amino)benzo[d][1,3]dioxol-4-yl)(4-morpholinopiperidin-1-yl)methanone] | 89 | 58 | 73 | 100 | 55 | 96 | 79 | 0.25 | 100 | 97 | 100 | 100 | 100
CNc1nc(Nc2ccc(P3(=O)CCN(C4CCOCC4)CC3)cc2OC)nc2[nH]cc(Cl)c12 [Compound 77, 4-(4-((5-chloro-4-(methylamino)-7H-pyrrolo[2,3-d]pyrimidin-2-yl)amino)-3-methoxyphenyl)-1-(tetrahydro-2H-pyran-4-yl)-1,4-azaphosphinane 4-oxide] | 98 | 93 | 88 | 98 | 70 | 100 | 84 | 0.9 | 100 | 100 | 100 | 100 | 100
